Assay results taken from US20070009886A1, “Carbohydrate-associated proteins” (Incyte Corporation, priority 2002, published 2007).

Columns and labels:
[1] = intranasal, relative to hydrocortisone; cited from earlier work
[2] = relative to progesterone; cited from earlier work
[3] = test system: SEQ ID NO:37 expression in PBMCs; test: Microarray analysis of SEQ ID NO:37 expression in cytokine-treated versus untreated PBMCs; format: cell-based, human; conditions: 10 ng/ml recombinant IL-4, 2 hours, pooled PBMCs of 6 healthy donors
Procedure: Total RNA is isolated from tissue samples using the guanidinium thiocyanate method and poly(A)^+ RNA is purified using the oligo-(dT) cellulose method. Each poly(A)^+ RNA sample is reverse transcribed using MMLV reverse-transcriptase, 0.05 pg/μl oligo-(dT) primer (21mer), 1× first strand buffer, 0.03 units/μl RNase inhibitor, […], […], 500 μM dTTP, 40 μM dCTP, 40 μM dCTP-Cy3 (BDS) or dCTP-Cy5 (Amersham Biosciences). The reverse transcription reaction is performed in a […] containing 200 ng poly(A)^+ RNA with GEMBRIGHT kits (Incyte). Specific control poly(A)^+ RNAs are synthesized by in vitro transcription from non-coding yeast genomic DNA. […]
Sequences of the present invention are used to generate array elements. […] Array elements are amplified in thirty cycles of PCR from an initial quantity of 1-2 ng to a final quantity greater than 5 μg. […]
Reporter-labeled hybridization complexes are detected with a microscope equipped with an Innova 70 mixed gas 10 W laser (Coherent, Inc., Santa Clara Calif.) capable of generating spectral lines at 488 nm for excitation of Cy3 and at 632 nm for excitation of Cy5. […]
A grid is superimposed over the fluorescence signal image such that the signal from each spot is centered in each element of the grid. […]

## C[C@H]1C[C@H]2[C@@H]3CCC4=CC(=O)C=C[C@]4(C)[C@@]3(Cl)[C@@H](O)C[C@]2(C)[C@@]1(O)C(=O)CO [beclomethasone]
[1]
  anti-inflammatory and vasoconstrictive effects greater than those produced by hydrocortisone: 5000 times

## 6α-methyl-17-hydroxyprogesterone [medroxyprogesterone]
[2]
  pharmacological activity greater than progesterone: about 15 times

B1: IL-4: a pleiotropic cytokine produced by activated T cells, mast cells, and basophils (protein, UniProt P05112 25-153, looked up)
Interleukin-4: HKCDITLQEIIKTLNSLTEQKTLCTELTVTDIFAASKNTTEKETFCRAATVLRQFYSHHEKDTRCLGATAQQFHRHKQLIRFLKRLDRNLWGLAGLNSCPVKEANQSTLENFLERLKTIMREKYSKCSS
[3]
  expression of SEQ ID NO:37 increased in comparison to untreated PBMCs: at least 2 fold
